# Where two headings read alike, the source gives them in different places.
# What was measured:
# [1] = system: Giardia; set-up: method as in Cedillo-Rivera and Munoz, 1992; settings: anaerobic conditions; ref Cedillo-Rivera and Munoz, 1992; read-out: IC50 against Giardia under anaerobic conditions; cited from earlier work
# [2] = system: Giardia intestinalis trophozoites; assay: Drug susceptibility of Giardia trophozoites, ATP level by luminescence (BacTiter-Glo), 48 h incubation, anaerobic or microaerobic; type: cell-based, Giardia intestinalis strain WB clone C6; settings: for IC50: Giardia duodenalis, 48 h, 37 °C, ATP level; for selectivity ratio at 48 h: human (Caco-2 cells) versus Giardia intestinalis, Caco-2, SI = IC50,Caco-2/IC50,Giardia
# Procedure: Trophozoites of G. intestinalis strain WB clone C6 (ATCC No. 50803TM) were cultured axenically at 37^∘C in 25-cm^2 flasks containing Diamond's TYI-S-33 medium supplemented with 10% bovine calf serum, 1 mg/mL bovine bile, 0.1 g/L streptomycin and 100 U/mL penicillin. Typically, 50 ml medium was inoculated with 25 × 10^6 cells and after 2 days cells were harvested by chilling the flasks on ice for 30 min for drug susceptibility assays. […] The assays were performed following the procedure described in [Bahadur et al. (2014)], using sterile 96-well white clear-bottom plates. […] Each drug concentration was tested in at least six replicates. MTZ was used as an internal positive control in the assay. The microtiter plates were then incubated at 37^∘C under anaerobic or microaerobic conditions, ensured by the Anaerocult® A or the Anaerocult® […] (Merck), respectively. […] Following 48 h incubation with the compound to be tested, 100 μL of the BacTiter-Glo^TM Microbial Cell Viability Assay System reagent (Promega) was added to each well for one-step lysis and ATP level detection. Plates were then incubated at room temperature for 15 min and ATP levels finally detected by luminescence on a plate reader (Wallac Victor3 1420 Multilabel Counter, PerkinElmer). Luminometric data were calibrated using ATP standard curves and normalized to the ATP level measured in control DMSO-treated cells (taken as 100%). The measured ATP level percentage was plotted as a function of the compound concentration and the half-maximal inhibitory concentration (IC50) was obtained by fitting the resulting titration profile to the Hill equation ([Goutelle et al., 2008]). The selectivity index (SI) of the compounds was then calculated as the ratio between the IC50 value measured on human cells over the value determined on Giardia trophozoites (SI = IC50,Caco-2/IC50,Giardia). The antigiardial activity of the novel compounds 23-67 was tested under both anaerobic and microaerobic conditions. According to ([Dunn et al., 2010]; [Bahadur et al., 2014]), susceptibility of Giardia trophozoites to increasing concentrations of each compound was assessed based on ATP level determination by luminescence. Dose-response curves for each compound were obtained after 48 h-incubation and compared to the data collected under identical conditions with MTZ, the drug of choice for treatment of giardiasis. […] Typical dose-response curves are shown in Figure 2, whereas the IC50 values measured for the synthetic compounds and MTZ under anaerobic and microaerobic conditions are reported in Table 1. […] Under anaerobic conditions, 18 out of the 45 synthetic compounds were as effective as MTZ or more under identical conditions (see Table 1).
# [3] = system: Caco-2 cells; assay: Counter-screen on Caco-2 cells, ATP level by luminescence (ATPlite), 48 h incubation; type: cell-based, human; settings: Homo sapiens, Caco-2, 48 h, atmospheric O2, 5% CO2, 48 h, 37 °C
# Procedure: Trophozoites of G. intestinalis strain WB clone C6 (ATCC No. 50803TM) were cultured axenically at 37^∘C in 25-cm^2 flasks containing Diamond’s TYI-S-33 medium supplemented with 10% bovine calf serum, 1 mg/mL bovine bile, 0.1 g/L streptomycin and 100 U/mL penicillin. […] Human epithelial colorectal adenocarcinoma (Caco-2) cells were grown in 25-cm^2 flasks in EMEM supplemented with 1% (v/v) non-essential amino acids, 2 mM glutamine, 5% (v/v) fetal bovine serum, 0.1 g/L streptomycin, and 100 U/mL penicillin.
# Cells were detached with 0.5% trypsin-EDTA and seeded in sterile 96-well white clear-bottom plates at the same density of Giardia trophozoites and at increasing concentration of the compound to be tested, as described above. The assays were carried out exactly as reported for the Giardia trophozoites, except that the plates were incubated (still at 37^∘C) at atmospheric O2 level, 5% CO2, and 95% humidity. Each drug concentration was tested in at least seven replicates. MTZ was used as an internal […] control in the assay. Following 48 h incubation with each compound, according to the manufacturer instructions, 100 μL of the ATPlite^TM luminescence assay system (Perkin Elmer) was added to each well for one-step lysis and ATP level detection by luminescence.
# Luminometric data were calibrated using ATP standard curves and normalized to the ATP level measured in control DMSO-treated cells (taken as 100%). The measured ATP level percentage was plotted as a function of the compound concentration and the half-maximal inhibitory concentration (IC50) was obtained by fitting the resulting titration profile to the Hill equation ([Goutelle et al., 2008]). The selectivity index (SI) of the compounds was then calculated as the ratio between the IC50 value measured on human cells over the value determined on Giardia trophozoites (SI = IC50,Caco-2/IC50,Giardia).
# Selectivity of the newly synthesized compounds toward Giardia was assessed by running a counter-screen on human epithelial Caco-2 cells. […] This allowed us to calculate the compounds SI, defined as the ratio between the IC50 value measured on human cells over the value determined on Giardia trophozoites.
# [4] = anaerobic conditions (Anaerocult A), read-out: Giardia (anaerobiosis) IC50
# [5] = microaerobic conditions (~5% O2, Anaerocult C), read-out: Giardia (microaerobiosis) IC50
# [6] = Giardia under anaerobiosis, read-out: Selectivity (IC50,Caco/IC50,Giardia) Anaerobiosis
# [7] = Giardia under microaerobiosis, read-out: Selectivity (IC50,Caco/IC50,Giardia) Microaerobiosis
SMILES,IC50 [1],"IC50 [2, 4]","IC50 [2, 5]","fold more efficient than MTZ against Giardia ([2]; anaerobic conditions, relative to MTZ)","selectivity ratio at 48 h [2, 6]","selectivity ratio at 48 h [2, 7]",IC50 [3],melting point
CCCSc1ccc2nc(NC(=O)OC)[nH]c2c1 [albendazole],< 100 nM,,,,,,,
O=C(/C=C/c1cc2ccccc2n(Cc2cn(-c3ccc(F)cc3)nn2)c1=O)c1ccc(F)cc1 [Compound 43],,1200 nM,300 nM,three to fourfold,5.8,23.3,7000 nM,202 to 204 °C
COc1ccccc1C(=O)/C=C/c1cc2ccccc2n(Cc2cn(-c3ccc(F)cc3)nn2)c1=O [Compound 47],,2700 nM,300 nM,,≥ 7,≥ 66,≥ 20000 nM,132 to 134 °C
Cc1ccc(C(=O)/C=C/c2cc3ccccc3n(Cc3cn(-c4ccc(C)cc4)nn3)c2=O)cc1 [Compound 37],,6300 nM,1600 nM,,≥ 7,≥ 31,≥ 50000 nM,202 to 204 °C
COc1ccc(-n2cc(Cn3c(=O)c(/C=C/C(=O)c4ccc(Cl)cc4)cc4ccccc43)nn2)cc1 [Compound 26],,5000 nM,2600 nM,,≥ 4,≥ 7,≥ 20000 nM,230 to 232 °C
Cc1ccc(C(=O)/C=C/c2cc3ccccc3n(Cc3cn(-c4ccccc4)nn3)c2=O)cc1 [Compound 64],,2800 nM,500 nM,,6.4,35.6,17800 nM,216 to 218 °C
COc1ccc(-n2cc(Cn3c(=O)c(/C=C/C(=O)c4ccc(C)cc4)cc4ccccc43)nn2)cc1 [Compound 28],,5400 nM,1500 nM,,≥ 14,≥ 53,≥ 80000 nM,213 to 215 °C
COc1ccc(-n2cc(Cn3c(=O)c(/C=C/C(=O)c4ccccc4OC)cc4ccccc43)nn2)cc1 [Compound 29],,2200 nM,400 nM,,> 15,,≥ 40000 nM,210 to 212 °C
Cc1ccc(-n2cc(Cn3c(=O)c(/C=C/C(=O)c4ccc(F)cc4)cc4ccccc43)nn2)cc1 [Compound 34],,3800 nM,1200 nM,,2.5,7.8,9400 nM,215 to 217 °C
Cc1ccc(C(=O)/C=C/c2cc3ccccc3n(Cc3cn(-c4ccc(Cl)cc4)nn3)c2=O)cc1 [Compound 55],,8700 nM,1100 nM,,2.3,18.2,20000 nM,217 to 219 °C
O=C(/C=C/c1cc2ccccc2n(Cc2cn(-c3ccc(Cl)cc3)nn2)c1=O)c1cccc(F)c1 [Compound 51],,10000 nM,900 nM,,≥ 10,≥ 111,≥ 100000 nM,190 to 192 °C

# From paper PMC4389562, “Antigiardial activity of novel triazolyl-quinolone-based chalcone derivatives: when oxygen makes the difference” (Frontiers in Microbiology, 2015)
